This passage reports inhibition results from ChEMBL document CHEMBL5696442, “Discovery of type II inhibitors of TGFβ-activated kinase 1 (TAK1) and mitogen-activated protein kinase kinase kinase kinase 2 (MAP4K2)” (J Med Chem, 2015).

For experiment [1], the target named is TRAF2 and NCK-interacting protein kinase (Homo sapiens) (UniProt Q9UKE5). The experiment is described as follows: Inhibition of TNIK (unknown origin) at 1 uM by Ambit Kinomescan binding assay relative to control.
Experiment [2] concerns the target T1, Receptor-interacting serine/threonine-protein kinase 4 (Homo sapiens) (UniProt P57078).
T1 sequence (whole entry): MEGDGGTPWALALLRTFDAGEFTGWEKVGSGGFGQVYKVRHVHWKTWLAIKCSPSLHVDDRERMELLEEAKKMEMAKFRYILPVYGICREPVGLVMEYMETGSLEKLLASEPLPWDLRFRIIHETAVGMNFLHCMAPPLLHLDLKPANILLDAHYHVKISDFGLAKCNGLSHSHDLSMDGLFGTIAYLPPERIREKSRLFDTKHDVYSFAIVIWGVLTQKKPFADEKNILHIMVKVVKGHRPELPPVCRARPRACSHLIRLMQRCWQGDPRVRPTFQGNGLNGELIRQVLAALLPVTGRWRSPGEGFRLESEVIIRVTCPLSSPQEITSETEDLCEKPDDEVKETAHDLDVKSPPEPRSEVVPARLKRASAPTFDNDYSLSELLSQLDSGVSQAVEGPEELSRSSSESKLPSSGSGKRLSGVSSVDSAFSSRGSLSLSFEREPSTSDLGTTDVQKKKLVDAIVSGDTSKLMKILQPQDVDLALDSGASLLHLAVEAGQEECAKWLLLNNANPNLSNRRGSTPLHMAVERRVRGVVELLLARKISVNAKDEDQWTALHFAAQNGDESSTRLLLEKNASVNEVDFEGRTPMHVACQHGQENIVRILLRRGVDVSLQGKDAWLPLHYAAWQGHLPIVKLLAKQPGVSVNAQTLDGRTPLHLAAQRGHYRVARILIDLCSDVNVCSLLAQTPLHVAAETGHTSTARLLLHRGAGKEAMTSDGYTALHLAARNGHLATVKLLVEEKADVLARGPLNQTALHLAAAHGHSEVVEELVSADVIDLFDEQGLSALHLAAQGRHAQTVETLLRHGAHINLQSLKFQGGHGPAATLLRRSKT
In words: Inhibition of RIPK4 (unknown origin) at 1 uM by Ambit Kinomescan binding assay relative to control.

For experiment [3], the target named is Angiopoietin-1 receptor (Homo sapiens) (UniProt Q02763). In words: Inhibition of TIE2 (unknown origin) at 1 uM by Ambit Kinomescan binding assay relative to control.
Experiment [4] deals with Epidermal growth factor receptor (Homo sapiens), P00533 [G719C]. In words: Inhibition of EGFR G719C mutant (unknown origin) at 10 uM by Ambit Kinomescan binding assay relative to control.
The target of experiment [5] is Cyclin-dependent kinase 2 (Homo sapiens) (UniProt P24941). The experiment is described as follows: Inhibition of CDK2 Lys1 labeling site in human Huh-7 cell lysate at 1 uM by KiNativ Profiling analysis relative to control. The format is subcellular.
Experiment [6] concerns the target T2, Serine/threonine-protein kinase greatwall (Homo sapiens) (UniProt Q96GX5).
T2 sequence (whole entry): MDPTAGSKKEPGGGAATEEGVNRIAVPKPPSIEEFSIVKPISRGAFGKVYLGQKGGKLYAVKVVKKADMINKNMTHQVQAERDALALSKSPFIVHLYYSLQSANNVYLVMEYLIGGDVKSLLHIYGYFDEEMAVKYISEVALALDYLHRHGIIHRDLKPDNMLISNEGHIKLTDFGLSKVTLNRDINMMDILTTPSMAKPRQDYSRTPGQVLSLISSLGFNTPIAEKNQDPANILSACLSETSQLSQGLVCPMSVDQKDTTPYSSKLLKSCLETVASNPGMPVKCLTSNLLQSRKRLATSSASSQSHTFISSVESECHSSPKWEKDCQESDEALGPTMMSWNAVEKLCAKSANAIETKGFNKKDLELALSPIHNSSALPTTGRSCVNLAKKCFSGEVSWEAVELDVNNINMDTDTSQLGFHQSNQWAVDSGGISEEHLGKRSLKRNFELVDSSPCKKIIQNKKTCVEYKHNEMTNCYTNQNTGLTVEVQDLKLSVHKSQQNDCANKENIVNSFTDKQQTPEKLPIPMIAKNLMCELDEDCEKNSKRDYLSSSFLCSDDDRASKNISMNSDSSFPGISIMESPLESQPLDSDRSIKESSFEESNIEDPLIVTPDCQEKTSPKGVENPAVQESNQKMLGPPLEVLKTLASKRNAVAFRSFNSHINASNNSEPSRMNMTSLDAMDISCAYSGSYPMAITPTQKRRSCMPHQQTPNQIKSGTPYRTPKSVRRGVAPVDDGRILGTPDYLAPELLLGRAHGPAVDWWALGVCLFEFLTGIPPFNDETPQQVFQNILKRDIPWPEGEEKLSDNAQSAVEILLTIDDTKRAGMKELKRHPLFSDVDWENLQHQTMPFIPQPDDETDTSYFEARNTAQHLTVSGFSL
The experiment is described as follows: Inhibition of MASTL Lys2 labeling site in human Huh-7 cells at 1 uM by KiNativ Profiling analysis relative to control. The format is cell-based.

Experiment [7] concerns the target T3, Serine/threonine-protein kinase D1 (Homo sapiens) (UniProt Q15139).
T3 sequence (whole entry): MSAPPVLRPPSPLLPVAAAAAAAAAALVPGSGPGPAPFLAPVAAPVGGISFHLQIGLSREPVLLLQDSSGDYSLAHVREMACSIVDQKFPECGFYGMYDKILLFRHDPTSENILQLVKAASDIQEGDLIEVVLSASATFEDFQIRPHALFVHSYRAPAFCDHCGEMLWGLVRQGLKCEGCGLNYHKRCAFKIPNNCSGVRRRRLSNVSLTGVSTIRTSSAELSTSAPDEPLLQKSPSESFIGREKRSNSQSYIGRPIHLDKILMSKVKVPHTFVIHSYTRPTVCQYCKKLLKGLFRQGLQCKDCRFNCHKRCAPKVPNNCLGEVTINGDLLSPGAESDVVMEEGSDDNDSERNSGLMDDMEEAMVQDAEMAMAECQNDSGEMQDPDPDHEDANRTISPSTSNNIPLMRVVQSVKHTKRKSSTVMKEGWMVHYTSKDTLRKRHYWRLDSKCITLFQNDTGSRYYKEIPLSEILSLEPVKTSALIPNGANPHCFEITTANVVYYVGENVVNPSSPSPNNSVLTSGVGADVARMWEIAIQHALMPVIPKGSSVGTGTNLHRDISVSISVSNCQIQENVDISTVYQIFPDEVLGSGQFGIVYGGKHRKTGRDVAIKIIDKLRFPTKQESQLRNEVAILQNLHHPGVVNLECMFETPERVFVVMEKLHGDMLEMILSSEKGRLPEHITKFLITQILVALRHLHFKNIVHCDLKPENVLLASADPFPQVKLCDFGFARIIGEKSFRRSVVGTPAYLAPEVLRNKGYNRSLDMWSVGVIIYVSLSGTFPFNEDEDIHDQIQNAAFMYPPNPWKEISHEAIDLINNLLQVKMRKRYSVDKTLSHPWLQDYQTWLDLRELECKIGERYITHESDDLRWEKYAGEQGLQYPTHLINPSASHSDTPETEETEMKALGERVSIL
In words: Inhibition of PKD1 Lys2 labeling site in human Huh-7 cell lysate at 1 uM by KiNativ Profiling analysis relative to control. The format is subcellular.

Sequence of Epidermal growth factor receptor (Homo sapiens), P00533 [G719C] (P00533 whole entry G719C): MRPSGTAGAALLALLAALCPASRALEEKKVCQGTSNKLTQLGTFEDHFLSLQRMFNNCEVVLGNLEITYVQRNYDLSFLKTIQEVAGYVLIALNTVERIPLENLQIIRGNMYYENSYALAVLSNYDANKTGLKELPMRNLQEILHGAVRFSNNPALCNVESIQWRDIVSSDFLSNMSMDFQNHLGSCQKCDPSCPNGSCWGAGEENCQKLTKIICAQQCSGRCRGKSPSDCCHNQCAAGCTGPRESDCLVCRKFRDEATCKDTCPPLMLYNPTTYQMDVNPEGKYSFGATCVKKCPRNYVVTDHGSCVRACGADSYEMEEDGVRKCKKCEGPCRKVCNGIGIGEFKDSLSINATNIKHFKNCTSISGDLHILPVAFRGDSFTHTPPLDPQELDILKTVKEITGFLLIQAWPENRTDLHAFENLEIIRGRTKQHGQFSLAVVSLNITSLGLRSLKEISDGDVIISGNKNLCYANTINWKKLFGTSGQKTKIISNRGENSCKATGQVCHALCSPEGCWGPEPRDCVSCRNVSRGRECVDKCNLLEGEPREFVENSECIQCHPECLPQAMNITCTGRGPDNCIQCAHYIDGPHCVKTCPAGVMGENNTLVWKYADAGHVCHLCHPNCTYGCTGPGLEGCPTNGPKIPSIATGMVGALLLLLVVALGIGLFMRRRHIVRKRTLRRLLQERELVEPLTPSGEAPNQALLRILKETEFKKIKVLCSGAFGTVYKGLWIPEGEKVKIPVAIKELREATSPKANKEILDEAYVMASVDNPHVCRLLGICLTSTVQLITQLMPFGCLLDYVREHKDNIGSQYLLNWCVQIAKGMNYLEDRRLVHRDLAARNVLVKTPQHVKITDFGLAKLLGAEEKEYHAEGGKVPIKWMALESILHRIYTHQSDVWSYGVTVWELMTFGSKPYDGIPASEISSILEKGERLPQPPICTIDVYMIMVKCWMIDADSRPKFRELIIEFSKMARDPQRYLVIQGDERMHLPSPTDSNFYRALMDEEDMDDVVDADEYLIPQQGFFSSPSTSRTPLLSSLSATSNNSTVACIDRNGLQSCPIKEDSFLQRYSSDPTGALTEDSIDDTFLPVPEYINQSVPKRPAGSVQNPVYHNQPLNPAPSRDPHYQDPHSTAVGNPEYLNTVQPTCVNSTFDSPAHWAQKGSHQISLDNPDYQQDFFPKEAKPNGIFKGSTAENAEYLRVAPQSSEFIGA
Sequence of TRAF2 and NCK-interacting protein kinase (Homo sapiens) (Q9UKE5 whole entry, looked up): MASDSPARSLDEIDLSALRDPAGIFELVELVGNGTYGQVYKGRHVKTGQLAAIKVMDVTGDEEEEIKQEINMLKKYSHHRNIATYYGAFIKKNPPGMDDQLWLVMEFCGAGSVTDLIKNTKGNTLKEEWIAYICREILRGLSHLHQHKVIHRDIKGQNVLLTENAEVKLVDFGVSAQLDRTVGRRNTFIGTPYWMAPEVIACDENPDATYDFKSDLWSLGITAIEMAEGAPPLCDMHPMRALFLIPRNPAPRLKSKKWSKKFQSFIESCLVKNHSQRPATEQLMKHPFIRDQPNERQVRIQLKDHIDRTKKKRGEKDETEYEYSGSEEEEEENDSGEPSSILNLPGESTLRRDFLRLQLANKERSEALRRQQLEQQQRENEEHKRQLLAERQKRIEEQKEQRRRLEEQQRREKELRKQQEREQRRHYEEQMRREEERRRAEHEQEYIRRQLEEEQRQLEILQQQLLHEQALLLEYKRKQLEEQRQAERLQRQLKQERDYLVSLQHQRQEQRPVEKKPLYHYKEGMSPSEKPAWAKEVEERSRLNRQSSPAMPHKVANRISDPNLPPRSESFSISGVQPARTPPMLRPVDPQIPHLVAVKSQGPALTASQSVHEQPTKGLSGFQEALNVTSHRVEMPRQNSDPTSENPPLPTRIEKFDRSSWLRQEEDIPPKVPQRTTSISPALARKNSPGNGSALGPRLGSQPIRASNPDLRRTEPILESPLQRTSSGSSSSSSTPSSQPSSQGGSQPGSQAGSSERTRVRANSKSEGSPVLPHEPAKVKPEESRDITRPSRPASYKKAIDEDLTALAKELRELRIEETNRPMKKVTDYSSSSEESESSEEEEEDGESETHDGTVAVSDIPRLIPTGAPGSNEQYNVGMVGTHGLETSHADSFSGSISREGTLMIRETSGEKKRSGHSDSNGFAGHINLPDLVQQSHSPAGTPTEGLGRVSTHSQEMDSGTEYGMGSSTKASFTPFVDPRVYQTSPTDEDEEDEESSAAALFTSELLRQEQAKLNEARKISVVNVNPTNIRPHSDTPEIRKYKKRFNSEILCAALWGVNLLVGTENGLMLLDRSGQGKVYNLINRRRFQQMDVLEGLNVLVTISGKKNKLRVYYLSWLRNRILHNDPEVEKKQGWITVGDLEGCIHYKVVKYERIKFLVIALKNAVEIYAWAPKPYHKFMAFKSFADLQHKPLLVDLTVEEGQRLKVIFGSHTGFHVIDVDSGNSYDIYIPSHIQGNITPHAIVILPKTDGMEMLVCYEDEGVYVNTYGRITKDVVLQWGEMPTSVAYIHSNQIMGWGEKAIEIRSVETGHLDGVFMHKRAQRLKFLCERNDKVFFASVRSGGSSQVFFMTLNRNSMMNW
Sequence of Angiopoietin-1 receptor (Homo sapiens) (Q02763 whole entry): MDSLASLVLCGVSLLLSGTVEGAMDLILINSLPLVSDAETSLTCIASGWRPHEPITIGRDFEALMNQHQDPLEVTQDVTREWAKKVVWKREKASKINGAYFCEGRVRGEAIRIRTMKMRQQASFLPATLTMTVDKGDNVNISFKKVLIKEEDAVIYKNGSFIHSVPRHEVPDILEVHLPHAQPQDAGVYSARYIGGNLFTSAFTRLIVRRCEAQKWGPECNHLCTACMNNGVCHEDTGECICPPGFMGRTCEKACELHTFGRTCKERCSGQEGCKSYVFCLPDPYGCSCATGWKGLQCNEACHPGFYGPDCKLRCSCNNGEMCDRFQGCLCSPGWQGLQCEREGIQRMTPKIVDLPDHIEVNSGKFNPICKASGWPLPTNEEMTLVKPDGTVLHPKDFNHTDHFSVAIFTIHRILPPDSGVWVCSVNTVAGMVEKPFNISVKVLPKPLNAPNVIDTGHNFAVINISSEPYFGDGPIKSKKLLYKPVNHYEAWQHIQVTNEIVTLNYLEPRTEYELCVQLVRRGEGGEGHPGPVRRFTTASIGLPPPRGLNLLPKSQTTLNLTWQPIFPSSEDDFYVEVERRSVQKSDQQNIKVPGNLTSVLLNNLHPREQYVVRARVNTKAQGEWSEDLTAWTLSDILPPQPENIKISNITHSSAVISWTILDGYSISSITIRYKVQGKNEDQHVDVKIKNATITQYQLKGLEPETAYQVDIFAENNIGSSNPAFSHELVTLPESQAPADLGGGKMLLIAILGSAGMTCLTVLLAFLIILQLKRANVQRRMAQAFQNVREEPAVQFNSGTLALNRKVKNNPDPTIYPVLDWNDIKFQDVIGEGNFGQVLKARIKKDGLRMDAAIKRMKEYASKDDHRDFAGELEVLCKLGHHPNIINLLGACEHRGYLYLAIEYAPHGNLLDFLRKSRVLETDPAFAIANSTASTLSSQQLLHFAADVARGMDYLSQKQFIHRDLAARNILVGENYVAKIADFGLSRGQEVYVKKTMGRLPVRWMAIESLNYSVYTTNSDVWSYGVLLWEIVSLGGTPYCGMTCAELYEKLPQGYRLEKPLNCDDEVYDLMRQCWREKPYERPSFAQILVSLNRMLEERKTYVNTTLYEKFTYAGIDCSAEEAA

As to `CCN1CCN(Cc2ccc(NC(=O)c3ccc(C)c(/C=C/c4cnc5[nH]ccc5c4OC)c3)cc2C(F)(F)F)CC1`, the inhibition (commonly the change of the read-out against control, counted positive when it falls) worked out at 14% in experiment [1], 100% in experiment [2] and 0% in experiment [3].

Consider `CCN1CCN(Cc2ccc(NC(=O)c3ccc(C)c(Oc4ccnc5[nH]ccc45)c3)cc2C(F)(F)F)CC1`, for which the inhibition in experiment [4] turned out to be 12%.

As to `CNc1cc(Oc2cc(C(=O)Nc3cc(N4CCN(C)CC4)cc(C(F)(F)F)c3)ccc2C)ncn1`, the values for the inhibition in experiment [5], in experiment [6] and in experiment [7] were 17.7%, -7.3% and -3.5%, respectively.
